According to US20160022675A1, “PROCESSES FOR PREPARING TETRAHYDROISOQUINOLINES” (BRISTOL-MYERS SQUIBB COMPANY, priority 2013, published 2016):

Tests used:
Solution pH = format: physicochemical; settings: at about 1 μg/mL concentration in water
SERT [1] = biological target: T1, SERT (Mus musculus, UniProt Q60857); experiment: SERT occupancy in the brain, mouse; format: in vivo
T1 construct: from tissue; host or cells: mouse brain
Method: (§1) The effects of Compound 1-(4S) in the mouse tail suspension model of depression and target site occupancy were assessed to compare occupancies associated with the behavioral response. The mouse tail suspension model is known the art. […] The lowest effective dose of Compound 1-(4S), 0.3 mg/kg, PO, decreased immobility by 77% relative to vehicle-treated controls. […] Administration of Compound 1-(4S) led to dose-dependent occupancy of SERT, NET, and DAT binding sites in the brain. At the lowest behaviorally-effective dose (0.3 mg/kg), occupancies were 86±1% of SERT, 76±3% of NET, and 28±3% of DAT. At 1 mg/kg, occupancies were 89±1%, 82±1% and 54±3% at SERT, NET, and DAT, respectively. Pharmacokinetics and pharmacodynamics (PD) in mouse, rat, and dog focused primarily on DAT occupancy since SERT and NET occupancies were saturated by drug for most, if not all, of the times studied. DAT occupancy increased as a function of increasing plasma exposure. The DAT occupancy to total plasma level could be fitted using a single binding site model and plasma level ED50 (the dose producing 50% effect) values could be calculated.
(§2) To better understand the margin between doses of Compound 1-(4S) that are effective in the mouse tail suspension models and those that lead to monoamine-related side effects, locomotor activity was examined to assess psychostimulant properties and stereotypy was examined to assess more severe DA-related side effects. Increased body temperature, another effect that has been attributed to DA pharmacology, was also studied. In the mouse, Compound 1-(4S) increased locomotor activity and stereotypy scores at doses of 3.0 mg/kg and 10 mg/kg, respectively. Thus, the margin between the Compound 1-(4S) effective dose in the mouse tail suspension and increased locomotor activity was 10-fold and the margin versus activity in stereotypy was 30-fold. The thermogenic effect of Compound 1-(4S) was studied in mice and rats by measuring changes in rectal temperature following administration of the compound. […] The onset of the thermogenesis was earlier as the dose was increased. […]

[2] = tested on: mouse tail suspension model of depression; experiment: Mouse tail suspension model of depression; format: in vivo; settings: PO
Method: as §1

Distribution coefficient = format: physicochemical
SERT [3] = biological target: T2, SERT (Rattus norvegicus, UniProt P31652); experiment: SERT occupancy, rat; format: in vivo; settings: thermogenesis study, all 3 doses (1.0, 3.0, 10 mg/kg)
T2 construct: from tissue; host or cells: rat, in vivo dosing
Excerpt: (§3) To better understand the margin between doses of Compound 1-(4S) that are effective in the mouse tail suspension models and those that lead to monoamine-related side effects, locomotor activity was examined to assess psychostimulant properties and stereotypy was examined to assess more severe DA-related side effects. Increased body temperature, another effect that has been attributed to DA pharmacology, was also studied. In the mouse, Compound 1-(4S) increased locomotor activity and stereotypy scores at doses of 3.0 mg/kg and 10 mg/kg, respectively. Thus, the margin between the Compound 1-(4S) effective dose in the mouse tail suspension and increased locomotor activity was 10-fold and the margin versus activity in stereotypy was 30-fold. The thermogenic effect of Compound 1-(4S) was studied in mice and rats by measuring changes in rectal temperature following administration of the compound. […] The onset of the thermogenesis was earlier as the dose was increased. The levels of SERT and NET occupancy were over 80% and appeared saturated across the doses tested. The DAT occupancy was dose-dependent, with 55±5.7% at 1.0 mg/kg, 74±6% at 3.0 mg/kg, and 83±0.8% at 10 mg/kg. […] The onset of the temperature increase was earlier at the highest dose of 10 mg/kg. […] The DAT occupancy was 37±8.3%, 55±5.2%, and 71±1.7% at 1.0, 3.0, and 10 mg/kg, respectively. […]

NET [4] = biological target: T3, NET (Rattus norvegicus, UniProt Q63380); experiment: NET occupancy, rat; format: in vivo; settings: thermogenesis study, all 3 doses (1.0, 3.0, 10 mg/kg)
T3 construct: from tissue; host or cells: rat, in vivo dosing
Excerpt: as §3

stereotypy = experiment: Stereotypy, mouse; format: in vivo
Excerpt: as §3

NET [5] = biological target: T4, NET (Mus musculus, UniProt O55192); experiment: NET occupancy in the brain, mouse; format: in vivo
T4 construct: from tissue; host or cells: mouse brain
Method: as §1, §2

DAT [6] = biological target: DAT (Homo sapiens, UniProt Q01959); experiment: [3H]DA uptake into HEK293/hDAT cells; format: cell-based; design: expressed in transfected cells; host or cells: HEK293; settings: read-out: Dopamine reuptake IC50 ([3H]DA uptake)
Excerpt: (§4) Cell-based assays were used to determine the ability of Compound 1-(4S) to inhibit reuptake of 3H-labeled DA ([3H]DA), NE ([3H]NE), and 5-HT ([3H]5-HT).

[7] = Solubility profile (USP definition) in solvents; format: physicochemical
SERT [8] = biological target: SERT (Homo sapiens, UniProt P31645); experiment: [3H]5-HT uptake into HEK293/hSERT cells; format: cell-based; design: expressed in transfected cells; host or cells: HEK293; settings: read-out: Serotonin reuptake IC50 ([3H]5-HT uptake)
Excerpt: as §4

DAT [9] = biological target: T5, DAT (Mus musculus, UniProt Q61327); experiment: DAT occupancy in the brain, mouse; format: in vivo
T5 construct: from tissue; host or cells: mouse brain
Method: as §1
(§5) To better understand the margin between doses of Compound 1-(4S) that are effective in the mouse tail suspension models and those that lead to monoamine-related side effects, locomotor activity was examined to assess psychostimulant properties and stereotypy was examined to assess more severe DA-related side effects. Increased body temperature, another effect that has been attributed to DA pharmacology, was also studied. In the mouse, Compound 1-(4S) increased locomotor activity and stereotypy scores at doses of 3.0 mg/kg and 10 mg/kg, respectively. Thus, the margin between the Compound 1-(4S) effective dose in the mouse tail suspension and increased locomotor activity was 10-fold and the margin versus activity in stereotypy was 30-fold. The thermogenic effect of Compound 1-(4S) was studied in mice and rats by measuring changes in rectal temperature following administration of the compound. […] The onset of the thermogenesis was earlier as the dose was increased. The levels of SERT and NET occupancy were over 80% and appeared saturated across the doses tested. The DAT occupancy was dose-dependent, with 55±5.7% at 1.0 mg/kg, 74±6% at 3.0 mg/kg, and 83±0.8% at 10 mg/kg. […] The onset of the temperature increase was earlier at the highest dose of 10 mg/kg. […] The DAT occupancy was 37±8.3%, 55±5.2%, and 71±1.7% at 1.0, 3.0, and 10 mg/kg, respectively. Consistent with data obtained with mice, the thermogenic effect of Compound 1-(4S) is dose dependently related to DAT occupancy and at least 50% DAT occupancy is needed for this effect.

NET [10] = biological target: NET (Homo sapiens, UniProt P23975); experiment: Competition binding, membranes from HEK cells overexpressing NET; design: expressed in transfected cells; host or cells: HEK cells (membranes); settings: radioligand at Kd concentration; HEK cell membranes
Method: Competition binding experiments were performed to determine the in vitro binding potencies (IC50 values) of Compound 1-(4S) for SERT, DAT, and NET. Membranes prepared from human embryonic kidney (HEK) cells overexpressing each transporter were employed. Radioligands were used at their respective affinity constant (Kd) concentrations for each transporter to enable direct comparisons of the IC50 values between assays.

[11] = pH-Solubility profile (aqueous); format: physicochemical; settings: aqueous solution, aqueous buffer; solution pH 6.5 and above
DAT [12] = biological target: T6, DAT (Rattus norvegicus, UniProt P23977); experiment: DAT occupancy, rat; format: in vivo
T6 construct: from tissue; host or cells: rat, in vivo dosing
Method: as §1, §5

[13] = mouse brain, 0.3 mg/kg, tail suspension study
[14] = mouse brain, 1 mg/kg, tail suspension study
[15] = mouse, thermogenesis study, across doses 1, 3, 10 mg/kg
[16] = single binding site model, read-out: total plasma concentration producing 50% effect (EC50), DAT occupancy

T4 sequence (O55192 whole entry): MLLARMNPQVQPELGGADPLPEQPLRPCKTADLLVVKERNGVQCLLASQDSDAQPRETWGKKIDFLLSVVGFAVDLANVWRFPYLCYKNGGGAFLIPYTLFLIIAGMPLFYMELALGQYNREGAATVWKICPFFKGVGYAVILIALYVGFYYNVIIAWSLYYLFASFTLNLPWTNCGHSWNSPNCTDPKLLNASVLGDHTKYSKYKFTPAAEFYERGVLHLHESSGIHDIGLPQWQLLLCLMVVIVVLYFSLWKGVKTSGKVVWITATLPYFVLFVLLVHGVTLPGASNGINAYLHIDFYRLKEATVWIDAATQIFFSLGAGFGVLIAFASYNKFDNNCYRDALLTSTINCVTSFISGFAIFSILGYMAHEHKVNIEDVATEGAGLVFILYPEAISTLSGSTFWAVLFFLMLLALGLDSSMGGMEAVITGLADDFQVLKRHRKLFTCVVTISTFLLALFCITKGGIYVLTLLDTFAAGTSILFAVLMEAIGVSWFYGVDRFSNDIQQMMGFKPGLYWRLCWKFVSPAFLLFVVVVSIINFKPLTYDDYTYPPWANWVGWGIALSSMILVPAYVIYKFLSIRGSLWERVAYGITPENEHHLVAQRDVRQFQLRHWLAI
T1 sequence (Q60857 whole entry): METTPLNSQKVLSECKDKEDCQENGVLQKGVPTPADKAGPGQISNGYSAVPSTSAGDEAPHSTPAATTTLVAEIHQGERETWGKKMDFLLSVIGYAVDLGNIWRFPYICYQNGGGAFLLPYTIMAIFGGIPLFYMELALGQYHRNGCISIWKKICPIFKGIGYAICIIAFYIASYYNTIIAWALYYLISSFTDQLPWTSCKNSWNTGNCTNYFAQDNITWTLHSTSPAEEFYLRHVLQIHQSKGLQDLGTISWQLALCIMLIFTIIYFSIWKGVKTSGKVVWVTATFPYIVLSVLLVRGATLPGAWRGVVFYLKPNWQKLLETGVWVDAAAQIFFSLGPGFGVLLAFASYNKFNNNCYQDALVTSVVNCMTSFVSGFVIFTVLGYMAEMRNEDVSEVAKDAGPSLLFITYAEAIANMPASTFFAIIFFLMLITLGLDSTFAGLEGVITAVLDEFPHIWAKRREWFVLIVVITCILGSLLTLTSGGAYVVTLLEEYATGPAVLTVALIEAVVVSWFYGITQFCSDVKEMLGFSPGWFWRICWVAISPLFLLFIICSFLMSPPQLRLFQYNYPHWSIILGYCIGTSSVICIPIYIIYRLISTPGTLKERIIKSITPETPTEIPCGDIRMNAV
T5 sequence (Q61327 whole entry): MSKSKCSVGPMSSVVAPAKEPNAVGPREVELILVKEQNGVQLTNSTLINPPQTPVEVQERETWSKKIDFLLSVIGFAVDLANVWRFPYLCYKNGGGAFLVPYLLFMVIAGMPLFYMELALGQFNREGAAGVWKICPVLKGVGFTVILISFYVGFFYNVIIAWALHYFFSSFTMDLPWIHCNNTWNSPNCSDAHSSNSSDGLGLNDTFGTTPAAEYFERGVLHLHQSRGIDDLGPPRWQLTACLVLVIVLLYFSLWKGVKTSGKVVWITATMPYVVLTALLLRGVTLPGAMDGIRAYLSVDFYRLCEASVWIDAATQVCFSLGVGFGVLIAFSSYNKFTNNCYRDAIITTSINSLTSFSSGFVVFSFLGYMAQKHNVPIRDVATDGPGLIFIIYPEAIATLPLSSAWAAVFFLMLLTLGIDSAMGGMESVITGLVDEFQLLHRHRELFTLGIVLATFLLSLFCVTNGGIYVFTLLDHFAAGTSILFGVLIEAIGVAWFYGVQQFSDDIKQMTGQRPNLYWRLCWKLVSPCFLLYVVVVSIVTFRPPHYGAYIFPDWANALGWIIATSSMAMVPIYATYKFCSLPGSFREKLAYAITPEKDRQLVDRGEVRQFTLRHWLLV
T6 sequence (P23977 whole entry): as the sequence (Q61327 whole entry) above, with P21S, V57A, S194A, R600H, V619L counted along it
Chain of NET (Homo sapiens, UniProt P23975) (P23975 whole entry): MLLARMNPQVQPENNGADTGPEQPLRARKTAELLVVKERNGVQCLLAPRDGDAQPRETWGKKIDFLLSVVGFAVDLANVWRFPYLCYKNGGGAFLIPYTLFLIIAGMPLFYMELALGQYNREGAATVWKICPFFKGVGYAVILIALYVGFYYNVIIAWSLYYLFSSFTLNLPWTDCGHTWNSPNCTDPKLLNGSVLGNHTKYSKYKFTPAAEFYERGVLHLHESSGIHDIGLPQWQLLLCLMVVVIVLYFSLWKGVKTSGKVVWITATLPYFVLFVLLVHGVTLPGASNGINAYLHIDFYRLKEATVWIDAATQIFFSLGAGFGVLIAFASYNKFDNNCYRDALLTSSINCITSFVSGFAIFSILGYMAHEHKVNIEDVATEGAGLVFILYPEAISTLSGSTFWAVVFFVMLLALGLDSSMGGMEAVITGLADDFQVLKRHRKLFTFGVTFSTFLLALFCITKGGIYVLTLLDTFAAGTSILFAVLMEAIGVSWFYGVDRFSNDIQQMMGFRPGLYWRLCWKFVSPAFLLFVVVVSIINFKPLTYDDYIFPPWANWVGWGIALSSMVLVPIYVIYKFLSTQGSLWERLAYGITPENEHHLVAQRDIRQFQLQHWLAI
T2 sequence (P31652 whole entry): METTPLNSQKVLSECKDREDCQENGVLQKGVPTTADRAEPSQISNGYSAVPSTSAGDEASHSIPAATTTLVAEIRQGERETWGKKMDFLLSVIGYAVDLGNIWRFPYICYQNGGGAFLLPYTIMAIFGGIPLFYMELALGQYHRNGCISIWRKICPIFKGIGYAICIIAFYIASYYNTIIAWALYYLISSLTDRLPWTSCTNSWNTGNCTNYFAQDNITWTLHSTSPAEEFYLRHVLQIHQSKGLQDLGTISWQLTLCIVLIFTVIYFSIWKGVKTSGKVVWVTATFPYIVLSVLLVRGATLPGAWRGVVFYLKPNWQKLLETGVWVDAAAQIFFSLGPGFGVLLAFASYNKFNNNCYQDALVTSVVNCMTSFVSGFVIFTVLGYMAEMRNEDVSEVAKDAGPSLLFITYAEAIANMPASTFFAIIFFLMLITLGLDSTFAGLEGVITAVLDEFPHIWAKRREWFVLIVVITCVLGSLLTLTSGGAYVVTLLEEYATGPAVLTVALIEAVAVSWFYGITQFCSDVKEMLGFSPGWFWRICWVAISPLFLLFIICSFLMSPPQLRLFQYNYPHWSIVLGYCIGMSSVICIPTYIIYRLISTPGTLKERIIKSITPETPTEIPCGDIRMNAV
T3 sequence (Q63380 1-617): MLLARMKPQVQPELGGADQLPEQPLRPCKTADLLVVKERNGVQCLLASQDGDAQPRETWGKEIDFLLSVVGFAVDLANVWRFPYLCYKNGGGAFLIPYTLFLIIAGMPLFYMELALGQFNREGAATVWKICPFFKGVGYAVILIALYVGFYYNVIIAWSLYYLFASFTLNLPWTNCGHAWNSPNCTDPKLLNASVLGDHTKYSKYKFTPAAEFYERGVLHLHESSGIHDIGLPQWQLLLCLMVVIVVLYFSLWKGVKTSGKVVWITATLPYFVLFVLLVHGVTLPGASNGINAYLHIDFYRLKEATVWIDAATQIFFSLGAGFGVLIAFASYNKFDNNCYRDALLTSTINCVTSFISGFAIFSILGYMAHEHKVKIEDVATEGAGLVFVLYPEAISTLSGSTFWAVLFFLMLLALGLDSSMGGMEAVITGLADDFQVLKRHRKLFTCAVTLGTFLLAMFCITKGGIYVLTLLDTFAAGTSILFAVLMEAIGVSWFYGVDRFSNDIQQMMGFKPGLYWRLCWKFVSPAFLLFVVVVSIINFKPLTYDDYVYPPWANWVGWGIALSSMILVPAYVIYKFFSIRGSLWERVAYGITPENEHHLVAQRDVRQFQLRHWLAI
Chain of SERT (Homo sapiens, UniProt P31645) (P31645 whole entry): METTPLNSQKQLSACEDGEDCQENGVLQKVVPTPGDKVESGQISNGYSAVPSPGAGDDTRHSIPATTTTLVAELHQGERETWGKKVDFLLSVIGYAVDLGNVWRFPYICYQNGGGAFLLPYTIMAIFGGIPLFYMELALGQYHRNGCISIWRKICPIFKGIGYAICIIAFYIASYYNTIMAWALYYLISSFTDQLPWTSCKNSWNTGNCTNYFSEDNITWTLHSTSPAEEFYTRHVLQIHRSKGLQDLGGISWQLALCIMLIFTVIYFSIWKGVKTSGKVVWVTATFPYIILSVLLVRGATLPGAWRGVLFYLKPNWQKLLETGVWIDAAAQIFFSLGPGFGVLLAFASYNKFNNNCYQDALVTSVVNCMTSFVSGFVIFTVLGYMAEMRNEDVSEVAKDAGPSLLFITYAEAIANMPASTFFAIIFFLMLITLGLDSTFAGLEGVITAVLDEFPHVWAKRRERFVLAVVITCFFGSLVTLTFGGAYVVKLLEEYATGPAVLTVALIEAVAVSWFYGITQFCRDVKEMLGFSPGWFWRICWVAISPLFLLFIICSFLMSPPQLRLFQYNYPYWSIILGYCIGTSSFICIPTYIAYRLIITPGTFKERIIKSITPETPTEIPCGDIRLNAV
Chain of DAT (Homo sapiens, UniProt Q01959) (Q01959 whole entry): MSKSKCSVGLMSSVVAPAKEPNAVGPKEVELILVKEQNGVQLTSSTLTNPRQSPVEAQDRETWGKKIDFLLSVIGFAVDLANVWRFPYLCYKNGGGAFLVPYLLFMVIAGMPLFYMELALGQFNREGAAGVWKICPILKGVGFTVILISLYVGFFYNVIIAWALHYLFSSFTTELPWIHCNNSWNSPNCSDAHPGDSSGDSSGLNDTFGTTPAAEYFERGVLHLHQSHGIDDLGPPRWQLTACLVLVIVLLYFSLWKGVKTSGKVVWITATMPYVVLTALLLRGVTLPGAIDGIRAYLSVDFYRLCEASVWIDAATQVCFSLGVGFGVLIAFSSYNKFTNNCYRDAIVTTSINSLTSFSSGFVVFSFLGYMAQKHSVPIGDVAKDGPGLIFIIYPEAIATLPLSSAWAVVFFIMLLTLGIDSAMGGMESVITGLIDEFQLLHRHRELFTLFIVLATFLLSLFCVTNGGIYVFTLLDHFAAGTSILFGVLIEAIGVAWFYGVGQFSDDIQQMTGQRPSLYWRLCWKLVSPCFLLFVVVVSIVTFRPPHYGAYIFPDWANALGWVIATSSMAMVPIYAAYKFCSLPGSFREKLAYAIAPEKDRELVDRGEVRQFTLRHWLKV

CN1Cc2cc(-c3ccc(N)nn3)ccc2[C@H](c2ccc3ccccc3c2)C1 [Compound 1-(4S), 6-[(4S)-1,2,3,4-tetrahydro-2-methyl-4-(2-naphthalenyl)-7-isoquinolinyl]-3-pyridazinamine]
Solution pH (Solution pH): ~7.0 at about 1 μg/mL concentration in water | receptor occupancy at 0.3 mg/kg (SERT [1]; [13]): 86 ± 1% | receptor occupancy at 1 mg/kg (SERT [1]; [14]): 89 ± 1% | SERT occupancy (SERT [1]; [15]): over 80% | decrease in immobility relative to vehicle-treated controls ([2]; 0.3 mg/kg): 77% | decrease in immobility ([2]; 1.0 mg/kg): 91% | lowest effective dose, tail suspension [2]: 0.3 mg/kg | Distribution coefficient Log Do/b (Distribution coefficient; pH 6.5): 3.10 | Distribution coefficient Log Do/b (Distribution coefficient; pH 7.4): 3.82 | SERT occupancy (SERT [3]): nearly saturated | NET occupancy (NET [4]): nearly saturated | dose that increased stereotypy scores (stereotypy): 10 mg/kg | margin between effective dose in mouse tail suspension and activity in stereotypy (stereotypy): 30 fold | receptor occupancy at 0.3 mg/kg (NET [5]; [13]): 76 ± 3% | receptor occupancy at 1 mg/kg (NET [5]; [14]): 82 ± 1% | NET occupancy (NET [5]; [15]): over 80% | IC50 (DAT [6]): 31.5 ± 2.5 nM | Solubility profile (USP definition) ([7]; N,N-dimethylacetamide, dimethylsulfoxide): soluble: N,N-dimethylacetamide, dimethylsulfoxide | Solubility profile (USP definition) ([7]; PEG 400): sparingly soluble: PEG 400 | Solubility profile (USP definition) ([7]; acetonitrile, ethyl acetate, n-butanol): very slightly soluble: acetonitrile, ethyl acetate, | Solubility profile (USP definition) ([7]; isopropanol, acetone, ethanol, methanol, propylene glycol, dichloromethane): slightly soluble: isopropanol, acetone, ethanol, | Solubility profile (USP definition) ([7]; n-heptane): practically insoluble: n-heptane | Solubility profile (USP definition) ([7]; tetrahydrofuran): freely soluble: tetrahydrofuran | IC50 (SERT [8]): 18.5 ± 5.5 nM | receptor occupancy at 0.3 mg/kg (DAT [9]; [13]): 28 ± 3% | receptor occupancy at 1 mg/kg (DAT [9]; [14]): 54 ± 3% | EC50 (DAT [9]; [16]): 1190 nM | receptor occupancy at 1 mg/kg (DAT [9]; thermogenesis study, 1.0 mg/kg): 55 ± 5.7% | receptor occupancy at 3 mg/kg (DAT [9]; thermogenesis study, 3.0 mg/kg): 74 ± 6% | receptor occupancy at 10 mg/kg (DAT [9]; thermogenesis study, 10 mg/kg): 83 ± 0.8% | IC50 (NET [10]): 7.99 ± 0.43 nM | solubility [11]: ≤ 1 µg/mL | EC50 (DAT [12]; [16]): 47 nM | receptor occupancy at 1 mg/kg (DAT [12]; thermogenesis study, 1.0 mg/kg): 37 ± 8.3% | receptor occupancy at 3 mg/kg (DAT [12]; thermogenesis study, 3.0 mg/kg): 55 ± 5.2% | receptor occupancy at 10 mg/kg (DAT [12]; thermogenesis study, 10 mg/kg): 71 ± 1.7%
